Data taken from the NIST ThermoML archive (doi:10.1016/j.jct.2016.10.035).
Numbers after ± are expanded uncertainties.

Settings: 298.15 K; 100 kPa; Crystal; X-ray diffraction

O=P([O-])([O-])[O-].O=P([O-])([O-])[O-].O=P([O-])([O-])[O-].[Ca+2].[Ca+2].[Ca+2].[Ca+2].[Ca+2].[OH-] [hydroxyapatite]
mass density: 3155 ± 12 kg/m3
